The values below come from patent US10125134B2 (Mirati Therapeutics, Inc., priority 2016, dated 2018).

For assay [1], the target named is KRas G12C (Homo sapiens, UniProt P01116, C118S/C51S/C80L/G12C). Kind of assay: KRas G12C Modification Assay (LCMS detection of covalent adduct). The conditions noted are these: normalized percent of control; tested at 5 μM concentration for 3 hours. In kind it is binding. In short, it runs like this:
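Covalent modification was read by reverse-phase LC/MS of intact protein after compound exposure, each reaction stopped at its time point with 25 mM acetic acid. Unmodified-protein signal, taken as percent of total, was normalised to untreated protein and reported as POC.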

The subject of assay [2] is NCI-H358 cells (express KRas G12C), Phospho-ERK. Kind of assay: Cellular inhibition of KRas G12C: Phospho-ERK in NCI-H358 cells. It is filed as cell-based. The conditions noted are these: Homo sapiens, pERK(Thr202/Tyr204) normalized with GAPDH, NCI-H358 cells, 3 hours, read-out: IC50. Put shortly: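 IC50 derived by 4-parameter fit of GAPDH-normalized pERK(Thr202/Tyr204) signal, as percent of DMSO control. Signal came from in-cell immunodetection with infrared secondaries after 3 h compound exposure of KRas G12C NCI-H358 cells at 0.5% DMSO.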

Like-named read-outs stand apart in the source and are kept apart here. A value given as a limit tells only on which side of the number the result lay.

As usually defined, the IC50 is the point on the concentration scale where inhibition reaches its midpoint. For the compound `C=CC(=O)N1CCN(c2nc(OC[C@@H]3CCCN3C)nc3c2CCN(c2cccc(F)c2C(F)(F)F)C3)C[C@@H]1CC#N` [Example 328, 2-((S)-1-acryloyl-4-(7-(3-fluoro-2-(trifluoromethyl)phenyl)-2-(((S)-1-methylpyrrolidin-2-yl)methoxy)-5,6,7,8-tetrahydropyrido[3,4-d]pyrimidin-4-yl)piperazin-2-yl)acetonitrile], the POC result in assay [1] is “C (“C”>50% POC)”. Also, the IC50 in assay [2] (NCI-H358, 3 h) was in the range of 0.1 to 1000 nM.
For `C=CC(=O)N1CCN(c2nc(OC[C@H]3CCCN3CCO)nc3c2CCN(c2cccc4ccccc24)C3)C[C@@H]1CC#N` [Example 329, 2-[(2S)-4-[2-[[(2R)-1-(2-hydroxyethyl)pyrrolidin-2-yl]methoxy]-7-(1-naphthyl)-6,8-dihydro-5H-pyrido[3,4-d]pyrimidin-4-yl]-1-prop-2-enoyl-piperazin-2-yl]acetonitrile] the same measures were “C (“C”>50% POC)” and 0.1 to 1000 nM.
Consider `C=CC(=O)N1CCN(c2nc(OC[C@@H]3CCCN3C)nc3c2CCN(c2cccc(OC)c2C(F)(F)F)C3)C[C@@H]1CC#N` [Example 330, 2-[(2S)-4-[7-[3-methoxy-2-(trifluoromethyl)phenyl]-2-[[(2S)-1-methylpyrrolidin-2-yl]methoxy]-6,8-dihydro-5H-pyrido[3,4-d]pyrimidin-4-yl]-1-prop-2-enoyl-piperazin-2-yl]acetonitrile], for which, in assay [1], the POC entry is listed as “C (“C”>50% POC)”. Besides, the IC50 in assay [2] (NCI-H358, 3 h) lay within 0.1 to 1000 nM.
On to `C=CC(=O)N1CCN(c2nc(OC[C@@H]3C[C@@H](OC)CN3C)nc3c2CCN(c2cccc(Cl)c2C(F)(F)F)C3)C[C@@H]1CC#N` [Example 332, 2-[(2S)-4-[7-[3-chloro-2-(trifluoromethyl)phenyl]-2-[[(2S,4R)-4-methoxy-1-methyl-pyrrolidin-2-yl]methoxy]-6,8-dihydro-5H-pyrido[3,4-d]pyrimidin-4-yl]-1-prop-2-enoyl-piperazin-2-yl]acetonitrile], for which the POC result in assay [1] is “C (“C”>50% POC)”. Moreover, in assay [2] (NCI-H358, 3 h), the IC50 was in the range of 0.1 to 1000 nM.
The corresponding values for `C=CC(=O)N1CCN(c2nc(OC[C@@H]3CCCN3C)nc3c2CCN(c2cccc4ccc(F)cc24)C3)C[C@@H]1CC#N` [Example 333, 2-[(2S)-4-[7-(7-fluoro-1-naphthyl)-2-[[(2S)-1-methylpyrrolidin-2-yl]methoxy]-6,8-dihydro-5H-pyrido[3,4-d]pyrimidin-4-yl]-1-prop-2-enoyl-piperazin-2-yl]acetonitrile] are “C (“C”>50% POC)” and 0.1 to 1000 nM.
`C=CC(=O)N1CCN(c2nc(OC[C@H]3CCCN3CC)nc3c2CCN(c2cccc4ccccc24)C3)C[C@@H]1CC#N` [Example 334, 2-[(2S)-4-[2-[[(2R)-1-ethylpyrrolidin-2-yl]methoxy]-7-(1-naphthyl)-6,8-dihydro-5H-pyrido[3,4-d]pyrimidin-4-yl]-1-prop-2-enoyl-piperazin-2-yl]acetonitrile]: the POC entry in assay [1] was “C (“C”>50% POC)”. Also, the IC50 in assay [2] (NCI-H358, 3 h) lay in the range of 0.1 to 1000 nM.
For `C=CC(=O)N1CCN(c2nc(OC[C@@H]3C[C@@H](OC)CN3CC)nc3c2CCN(c2cccc(Cl)c2C(F)(F)F)C3)C[C@@H]1CC#N` [Example 335, 2-[(2S)-4-[7-[3-chloro-2-(trifluoromethyl)phenyl]-2-[[(2S,4R)-1-ethyl-4-methoxy-pyrrolidin-2-yl]methoxy]-6,8-dihydro-5H-pyrido[3,4-d]pyrimidin-4-yl]-1-prop-2-enoyl-piperazin-2-yl]acetonitrile], in assay [1], the POC entry is reported as “C (“C”>50% POC)”. In assay [2] (NCI-H358, 3 h), the concentration for half-maximal inhibition (IC50) is 0.1 to 1000 nM.
On to `C=CC(=O)N1C[C@H](C)N(c2nc(OC[C@@H]3CCCN3C)nc3c2CCN(c2cc(O)cc4ccccc24)C3)C[C@H]1C` [Example 336, 1-[(2R,5S)-4-[7-(3-hydroxy-1-naphthyl)-2-[[(2S)-1-methylpyrrolidin-2-yl]methoxy]-6,8-dihydro-5H-pyrido[3,4-d]pyrimidin-4-yl]-2,5-dimethyl-piperazin-1-yl]prop-2-en-1-one], for which the POC result in assay [1] is reported as “C (“C”>50% POC)”. For the same compound, the IC50 in assay [2] (NCI-H358, 3 h) lay in the range of 0.1 to 1000 nM.
For `C=CC(=O)N1CCN(c2nc(OC[C@@H]3CCCN3C)nc3c2CCN(c2cccc(Cl)c2CC)C3)C[C@@H]1CC#N` [Example 337, 2-[(2S)-4-[7-(3-chloro-2-ethyl-phenyl)-2-[[(2S)-1-methylpyrrolidin-2-yl]methoxy]-6,8-dihydro-5H-pyrido[3,4-d]pyrimidin-4-yl]-1-prop-2-enoyl-piperazin-2-yl]acetonitrile] the same measures were “C (“C”>50% POC)” and 0.1 to 1000 nM.
With `C=CC(=O)N1CCN(c2nc(OC[C@@H]3CCCN3C)nc3c2CCN(c2cccc4cccc(F)c24)C3)C[C@@H]1CC#N` [Example 338, 2-((S)-1-acryloyl-4-(7-(8-fluoronaphthalen-1-yl)-2-(((S)-1-methylpyrrolidin-2-yl)methoxy)-5,6,7,8-tetrahydropyrido[3,4-d]pyrimidin-4-yl)piperazin-2-yl)acetonitrile], the POC entry in assay [1] is “C (“C”>50% POC)”. Further, the IC50 in assay [2] (NCI-H358, 3 h) lay in the range of 0.1 to 1000 nM.
Take `C=CC(=O)N1CCN(c2nc(OC[C@@H]3CCCN3CC)nc3c2CCN(c2cccc(Cl)c2C(F)(F)F)C3)C[C@@H]1CC#N` [Example 339, 2-((S)-1-acryloyl-4-(7-(3-chloro-2-(trifluoromethyl)phenyl)-2-(((S)-1-ethylpyrrolidin-2-yl)methoxy)-5,6,7,8-tetrahydropyrido[3,4-d]pyrimidin-4-yl)piperazin-2-yl)acetonitrile]: in assay [1], the POC result was “C (“C”>50% POC)”. In addition, the IC50 in assay [2] (NCI-H358, 3 h) lay in the range of 0.1 to 1000 nM.
Take `C=CC(=O)N1CCN(c2nc(OC[C@@H]3CCCN3C)nc3c2CCN(c2cnccc2OC)C3)C[C@@H]1CC#N` [Example 340, 2-((S)-1-acryloyl-4-(7-(4-methoxypyridin-3-yl)-2-(((S)-1-methylpyrrolidin-2-yl)methoxy)-5,6,7,8-tetrahydropyrido[3,4-d]pyrimidin-4-yl)piperazin-2-yl)acetonitrile]: the POC result in assay [1] was “C (“C”>50% POC)”. For the same compound, the IC50 in assay [2] (NCI-H358, 3 h) is > 1000 nM.
Regarding `C=CC(=O)N1CCN(c2nc(OC[C@@H]3CCCN3CCO)nc3c2CCN(c2cccc4ccccc24)C3)C[C@@H]1CC#N` [Example 341, 2-((S)-1-acryloyl-4-(2-(((S)-1-(2-hydroxyethyl)pyrrolidin-2-yl)methoxy)-7-(naphthalen-1-yl)-5,6,7,8-tetrahydropyrido[3,4-d]pyrimidin-4-yl)piperazin-2-yl)acetonitrile], in assay [1], the POC result is reported as “C (“C”>50% POC)”. Besides, in assay [2] (NCI-H358, 3 h), the IC50 was 0.1 to 1000 nM.
As to `CN(C)C/C=C/C(=O)N1CCN(c2nc(OC[C@@H]3C[C@@H](O)CN3C)nc3c2CCN(c2cccc(F)c2C(F)(F)F)C3)C[C@@H]1CC#N` [Example 342, 2-[(2S)-1-[(E)-4-(dimethylamino)but-2-enoyl]-4-[7-[3-fluoro-2-(trifluoromethyl)phenyl]-2-[[(2S,4R)-4-hydroxy-1-methyl-pyrrolidin-2-yl]methoxy]-6,8-dihydro-5H-pyrido[3,4-d]pyrimidin-4-yl]piperazin-2-yl]acetonitrile], the POC entry in assay [1] was “C (“C”>50% POC)”. In assay [2], the IC50 was in the range of 0.1 to 1000 nM.
In the case of `C=CS(=O)(=O)N1CCN(c2nc(OC[C@@H]3CCCN3C)nc3c2CCN(c2cccc(C)c2C)C3)CC1` [Example 343, (S)-7-(2,3-dimethylphenyl)-2-((1-methylpyrrolidin-2-yl)methoxy)-4-(4-(vinylsulfonyl)piperazin-1-yl)-5,6,7,8-tetrahydropyrido[3,4-d]pyrimidine], in assay [1], the POC result is “C (“C”>50% POC)”. For the same compound, the IC50 in assay [2] (NCI-H358, 3 h) was > 1000 nM.
As to `C=CC(=O)N1CCN(c2nc(OC[C@H]3CCCN3C)nc3c2CCN(c2cc(O)cc4ccccc24)C3)C[C@@H]1CC#N` [Example 344, 2-[(2S)-4-[7-(3-hydroxy-1-naphthyl)-2-[[(2R)-1-methylpyrrolidin-2-yl]methoxy]-6,8-dihydro-5H-pyrido[3,4-d]pyrimidin-4-yl]-1-prop-2-enoyl-piperazin-2-yl]acetonitrile], the POC result in assay [1] was “C (“C”>50% POC)”. In addition, the IC50 in assay [2] (NCI-H358, 3 h) was in the range of 0.1 to 1000 nM.
Turning to `C=CC(=O)N1CCN(c2nc(OC[C@@H]3CCCN3C)nc3c2CCN(c2ccncc2C)C3)C[C@@H]1CC#N` [Example 345, 2-[(2S)-4-[7-(3-methyl-4-pyridyl)-2-[[(2S)-1-methylpyrrolidin-2-yl]methoxy]-6,8-dihydro-5H-pyrido[3,4-d]pyrimidin-4-yl]-1-prop-2-enoyl-piperazin-2-yl]acetonitrile], the POC entry in assay [1] is reported as “C (“C”>50% POC)”. Further, the IC50 in assay [2] (NCI-H358, 3 h) was > 1000 nM.
In the case of `CN1CCC[C@H]1COc1nc2c(c(N3CCN(C(=O)/C=C/CN4CCOCC4)[C@@H](CC#N)C3)n1)CCN(c1cccc(Cl)c1C(F)(F)F)C2` [Example 346, 2-[(2S)-4-[7-[3-chloro-2-(trifluoromethyl)phenyl]-2-[[(2S)-1-methylpyrrolidin-2-yl]methoxy]-6,8-dihydro-5H-pyrido[3,4-d]pyrimidin-4-yl]-1-[(E)-4-morpholinobut-2-enoyl]piperazin-2-yl]acetonitrile], the POC result in assay [1] is “C (“C”>50% POC)”. For the same compound, the IC50 in assay [2] (NCI-H358, 3 h) lay within 0.1 to 1000 nM.
Consider `CN1CCC[C@H]1COc1nc2c(c(N3CCN(C(=O)/C=C/CN4CCCC4)[C@@H](CC#N)C3)n1)CCN(c1cccc(Cl)c1C(F)(F)F)C2` [Example 347, 2-[(2S)-4-[7-[3-chloro-2-(trifluoromethyl)phenyl]-2-[[(2S)-1-methylpyrrolidin-2-yl]methoxy]-6,8-dihydro-5H-pyrido[3,4-d]pyrimidin-4-yl]-1-[(E)-4-pyrrolidin-1-ylbut-2-enoyl]piperazin-2-yl]acetonitrile], for which the POC entry in assay [1] is “C (“C”>50% POC)”. In addition, the IC50 in assay [2] (NCI-H358, 3 h) was in the range of 0.1 to 1000 nM.
